pEC50, pIC50: −log10 of the molar value. Read-outs that look alike come from different tables or passages of the source. Positions of bridges follow the written chain, without caps; N, C: chain ends. No end group written: not given here.
Assays:
KCa2/3 channels = conditions: ref Strøbæk et al., 2004; cited from earlier work
hKCa2.3 = hKCa2.3 (Homo sapiens, UniProt Q9UGI6); assay: Whole-cell patch-clamp of KCa2.3 currents; assay type: cell-based
cloned KCa3.1 channels = conditions: read-out: EC50 cloned KCa3.1 channels; ref Wulff et al., 2007; cited from earlier work
mice [1] = assay: Maximal electroshock; assay type: in vivo, mouse; conditions: 100 mg/kg i.p., 15 min, 30 min and 1 hour
mice [2] = assay type: in vivo, mouse; conditions: 100 mg/kg i.p., 15 min, 30 min and 1 hour

hKCa2.3, sequence (Q9UGI6 whole entry): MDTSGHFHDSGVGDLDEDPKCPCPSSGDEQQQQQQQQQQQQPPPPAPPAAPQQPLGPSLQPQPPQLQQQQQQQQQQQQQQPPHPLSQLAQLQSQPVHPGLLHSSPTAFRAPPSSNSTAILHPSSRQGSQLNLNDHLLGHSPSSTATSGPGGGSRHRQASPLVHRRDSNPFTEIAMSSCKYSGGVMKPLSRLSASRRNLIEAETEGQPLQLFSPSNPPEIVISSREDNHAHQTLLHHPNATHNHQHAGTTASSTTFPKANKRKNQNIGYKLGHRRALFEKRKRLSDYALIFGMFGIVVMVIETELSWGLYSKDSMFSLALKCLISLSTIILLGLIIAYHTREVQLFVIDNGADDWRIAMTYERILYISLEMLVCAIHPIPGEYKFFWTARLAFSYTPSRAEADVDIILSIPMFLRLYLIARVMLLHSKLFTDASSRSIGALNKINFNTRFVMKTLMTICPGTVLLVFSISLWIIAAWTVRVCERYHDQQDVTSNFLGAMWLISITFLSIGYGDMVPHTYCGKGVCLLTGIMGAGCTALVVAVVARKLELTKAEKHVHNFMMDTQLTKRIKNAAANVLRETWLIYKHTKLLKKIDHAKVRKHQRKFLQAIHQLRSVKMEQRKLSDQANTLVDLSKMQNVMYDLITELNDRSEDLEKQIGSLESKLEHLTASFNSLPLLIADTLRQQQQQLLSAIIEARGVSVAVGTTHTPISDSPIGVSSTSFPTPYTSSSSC

O=C1Nc2c(ccc(Cl)c2Cl)C1=NO [NS309, 6,7-dichloro-1H-indole-2,3-dione 3-oxime]
concentrations activating KCa2 and KCa3.1 channels (KCa2/3 channels): submicromolar concentrations

apamin (CNCKAPETALCARRCQQH-NH2; disulfide 1-11, 3-15; ends not checked; UniProt P01500 28-45, looked up)
pIC50 (hKCa2.3; read-out: IC50 blockade of hKCa2.3 currents, currents activated with 10 μM SKA-31, 250 nM free Ca2+): ~9.00

CCn1c(=O)[nH]c2ccccc21 [EBIO, 1-ethylbenzimidazolin-2-one]
pEC50 (cloned KCa3.1 channels): 4.52

Cl.c1ccc2c(c1)CCC[C@H]2Nc1nc2ccccc2[nH]1 [NS8593, N-[(1R)-1,2,3,4-tetrahydro-1-naphthalenyl]-1H-benzimidazol-2-amine hydrochloride]
pIC50 (hKCa2.3; read-out: IC50 inhibition of KCa2.3 currents, absence of SKA-31): 6.15
shift of IC50 on KCa2.3 by SKA-31 (hKCa2.3; with versus without SKA-31): roughly 10 fold

Nc1nc2cc3c(cc2s1)CCC3 [SKA-29, 6,7-Dihydro-5H-indeno[5,6-d]thiazol-2-amine]
protection from seizures, maximal electroshock (MES) model (mice [1]): effectively protect mice from seizures
protection from seizures, 6 Hz minimal electroshock model (mice [2]): effectively protect mice from seizures
